Laboratory results as given in patent US7192906B2, “Substituted pyrazole derivatives, production process thereof, and herbicide compositions containing the derivatives” (SDS Biotech K.K., priority 2001, dated 2007).

Legend:
Assay type in all cases: in vivo
soybean (Glycine max) [1] = experiment: Test Example 1 upland field foliage treatment, crop phytotoxicity; conditions: Table 4, upland field foliage treatment, index 0-5
Procedure: (§1) A plastic pot of 130 cm^2 was filled with upland soil. Subsequently, weed seeds of Setaria viridis, Digitaria adscendens, Chenopodium album and Stellaria media, and crop seeds of soybean (Glycine max) and wheat (Triticum aestivum), were sowed and covered with soil of about 1 cm thickness. On the 14th day after the sowing, the wettable powder prepared in Formulation Example 1 was diluted with water such that the amount of the active ingredient became 1 kg per hectare, and then uniformly applied to the plant leaf surfaces. On the 21st day after the application, observation and evaluation were carried out according to the criteria described below.
(§2) Herbicidal activity was evaluated based on the following criteria.
(§3) • 5: herbicidal effect of not less than 90%, or phytotoxicity of 90% or more • 4: herbicidal effect of not less than 70% and less than 90%, or phytotoxicity of 70% or more and less than 90% • 3: herbicidal effect of not less than 50% and less than 70%, or phytotoxicity of 50% or more and less than 70% • 2: herbicidal effect of not less than 30% and less than 50%, or phytotoxicity of 30% or more and less than 50% • 1: herbicidal effect of not less than 10% and less than 30%, or phytotoxicity of 10% or more and less than 30% • 0: herbicidal effect of not less than 0% and less than 10%, or phytotoxicity of 0% or more and less than 10%

[2] = system: wheat (Triticum aestivum); experiment: as above; conditions: Table 4, upland field foliage treatment, index 0-5
Procedure: as §1, §2, §3

Digitaria adscendens [3] = experiment: Test Example 2 upland soil treatment; conditions: Table 5, upland soil treatment, index 0-5
Procedure: as §1, with “next” for “14th”, “soil surface.” for “plant leaf surfaces.”, “aforesaid criteria.” for “criteria described below.”
as §2, §3

Chenopodium album [4] = experiment: Test Example 2 upland soil treatment; conditions: Table 5, upland soil treatment, index 0-5
Procedure: as §1, with “next” for “14th”, “soil surface.” for “plant leaf surfaces.”, “aforesaid criteria.” for “criteria described below.”
as §2, §3

Stellaria media [5] = experiment: Test Example 2 upland soil treatment; conditions: Table 5, upland soil treatment, index 0-5
Procedure: as §1, with “next” for “14th”, “soil surface.” for “plant leaf surfaces.”, “aforesaid criteria.” for “criteria described below.”
as §2, §3

Setaria viridis [6] = experiment: Test Example 2 upland soil treatment; conditions: Table 5, upland soil treatment, index 0-5
Procedure: as §1, with “next” for “14th”, “soil surface.” for “plant leaf surfaces.”, “aforesaid criteria.” for “criteria described below.”
as §2, §3

Digitaria adscendens [7] = experiment: Test Example 1 upland field foliage treatment; conditions: Table 4, upland field foliage treatment, index 0-5
Procedure: as §1, §2, §3

Chenopodium album [8] = experiment: Test Example 1 upland field foliage treatment; conditions: Table 4, upland field foliage treatment, index 0-5
Procedure: as §1, §2, §3

Stellaria media [9] = experiment: Test Example 1 upland field foliage treatment; conditions: Table 4, upland field foliage treatment, index 0-5
Procedure: as §1, §2, §3

Setaria viridis [10] = experiment: Test Example 1 upland field foliage treatment; conditions: Table 4, upland field foliage treatment, index 0-5
Procedure: as §1, §2, §3

soybean (Glycine max) [11] = experiment: Test Example 2 upland soil treatment, crop phytotoxicity; conditions: Table 5, upland soil treatment, index 0-5
Procedure: as §1, with “next” for “14th”, “soil surface.” for “plant leaf surfaces.”, “aforesaid criteria.” for “criteria described below.”
as §2, §3

[12] = system: wheat (Triticum aestivum); experiment: as above; conditions: Table 5, upland soil treatment, index 0-5
Procedure: as §1, with “next” for “14th”, “soil surface.” for “plant leaf surfaces.”, “aforesaid criteria.” for “criteria described below.”
as §2, §3

| SMILES | Herbicidal activity (phytotoxicity) GM: Soybean (Glycine max) (soybean (Glycine max) [1]) | Herbicidal activity (phytotoxicity) TA: Wheat (Triticum aestivum) [2] | Herbicidal activity DA: Digitaria adscendens (Digitaria adscendens [3]) | Herbicidal activity CA: Chenopodium album (Chenopodium album [4]) | Herbicidal activity SM: Stellaria media (Stellaria media [5]) | Herbicidal activity SV: Setaria viridis (Setaria viridis [6]) | Herbicidal activity DA: Digitaria adscendens (Digitaria adscendens [7]) | Herbicidal activity CA: Chenopodium album (Chenopodium album [8]) | Herbicidal activity SM: Stellaria media (Stellaria media [9]) | Herbicidal activity SV: Setaria viridis (Setaria viridis [10]) | Herbicidal activity (phytotoxicity) GM: Soybean (Glycine max) (soybean (Glycine max) [11]) | Herbicidal activity (phytotoxicity) TA: Wheat (Triticum aestivum) [12] |
| --- | --- | --- | --- | --- | --- | --- | --- | --- | --- | --- | --- | --- |
| CNC(=O)C(Cn1cc(C)c(-c2ccc(C)c(F)c2)n1)=NOC [Compound 74] | 0 (herbicidal effect of not less than 0% and less than 10%, or phytotoxicity of 0% or more and less than 10%) | 0 (herbicidal effect of not less than 0% and less than 10%, or phytotoxicity of 0% or more and less than 10%) | 5 (herbicidal effect of not less than 90%, or phytotoxicity of 90% or more) | 5 (herbicidal effect of not less than 90%, or phytotoxicity of 90% or more) | 5 (herbicidal effect of not less than 90%, or phytotoxicity of 90% or more) | 4 (herbicidal effect of not less than 70% and less than 90%, or phytotoxicity of 70% or more and less than 90%) | 5 (herbicidal effect of not less than 90%, or phytotoxicity of 90% or more) | 5 (herbicidal effect of not less than 90%, or phytotoxicity of 90% or more) | 5 (herbicidal effect of not less than 90%, or phytotoxicity of 90% or more) | 5 (herbicidal effect of not less than 90%, or phytotoxicity of 90% or more) | 1 (herbicidal effect of not less than 10% and less than 30%, or phytotoxicity of 10% or more and less than 30%) | 0 (herbicidal effect of not less than 0% and less than 10%, or phytotoxicity of 0% or more and less than 10%) |
| CCN(CC)C(=O)C(Cn1cc(C)c(-c2ccccc2)n1)=NOC [Compound 94] | 0 (herbicidal effect of not less than 0% and less than 10%, or phytotoxicity of 0% or more and less than 10%) | 0 (herbicidal effect of not less than 0% and less than 10%, or phytotoxicity of 0% or more and less than 10%) | 3 (herbicidal effect of not less than 50% and less than 70%, or phytotoxicity of 50% or more and less than 70%) | 5 (herbicidal effect of not less than 90%, or phytotoxicity of 90% or more) | 4 (herbicidal effect of not less than 70% and less than 90%, or phytotoxicity of 70% or more and less than 90%) | 3 (herbicidal effect of not less than 50% and less than 70%, or phytotoxicity of 50% or more and less than 70%) | 3 (herbicidal effect of not less than 50% and less than 70%, or phytotoxicity of 50% or more and less than 70%) | 5 (herbicidal effect of not less than 90%, or phytotoxicity of 90% or more) | 5 (herbicidal effect of not less than 90%, or phytotoxicity of 90% or more) | 3 (herbicidal effect of not less than 50% and less than 70%, or phytotoxicity of 50% or more and less than 70%) | 0 (herbicidal effect of not less than 0% and less than 10%, or phytotoxicity of 0% or more and less than 10%) | 0 (herbicidal effect of not less than 0% and less than 10%, or phytotoxicity of 0% or more and less than 10%) |
| CNC(=O)C(Cn1cc(C)c(-c2ccc(F)cc2Cl)n1)=NOC [Compound 82] | 0 (herbicidal effect of not less than 0% and less than 10%, or phytotoxicity of 0% or more and less than 10%) | 0 (herbicidal effect of not less than 0% and less than 10%, or phytotoxicity of 0% or more and less than 10%) | 5 (herbicidal effect of not less than 90%, or phytotoxicity of 90% or more) | 4 (herbicidal effect of not less than 70% and less than 90%, or phytotoxicity of 70% or more and less than 90%) | 5 (herbicidal effect of not less than 90%, or phytotoxicity of 90% or more) | 4 (herbicidal effect of not less than 70% and less than 90%, or phytotoxicity of 70% or more and less than 90%) | 5 (herbicidal effect of not less than 90%, or phytotoxicity of 90% or more) | 4 (herbicidal effect of not less than 70% and less than 90%, or phytotoxicity of 70% or more and less than 90%) | 4 (herbicidal effect of not less than 70% and less than 90%, or phytotoxicity of 70% or more and less than 90%) | 3 (herbicidal effect of not less than 50% and less than 70%, or phytotoxicity of 50% or more and less than 70%) | 0 (herbicidal effect of not less than 0% and less than 10%, or phytotoxicity of 0% or more and less than 10%) | 0 (herbicidal effect of not less than 0% and less than 10%, or phytotoxicity of 0% or more and less than 10%) |
| CNC(=O)C(Cn1cc(C)c(-c2ccc(SC(F)(F)F)cc2)n1)=NOC [Compound 70] | 0 (herbicidal effect of not less than 0% and less than 10%, or phytotoxicity of 0% or more and less than 10%) | 0 (herbicidal effect of not less than 0% and less than 10%, or phytotoxicity of 0% or more and less than 10%) | 3 (herbicidal effect of not less than 50% and less than 70%, or phytotoxicity of 50% or more and less than 70%) | 4 (herbicidal effect of not less than 70% and less than 90%, or phytotoxicity of 70% or more and less than 90%) | 4 (herbicidal effect of not less than 70% and less than 90%, or phytotoxicity of 70% or more and less than 90%) | 3 (herbicidal effect of not less than 50% and less than 70%, or phytotoxicity of 50% or more and less than 70%) | 5 (herbicidal effect of not less than 90%, or phytotoxicity of 90% or more) | 5 (herbicidal effect of not less than 90%, or phytotoxicity of 90% or more) | 4 (herbicidal effect of not less than 70% and less than 90%, or phytotoxicity of 70% or more and less than 90%) | 4 (herbicidal effect of not less than 70% and less than 90%, or phytotoxicity of 70% or more and less than 90%) | 0 (herbicidal effect of not less than 0% and less than 10%, or phytotoxicity of 0% or more and less than 10%) | 0 (herbicidal effect of not less than 0% and less than 10%, or phytotoxicity of 0% or more and less than 10%) |
